# Read-outs that look alike come from different tables or passages of the source.
# Legend:
# [1] = test system: Gn-Ia organisms (Gram-negative bacteria sensitive to ampicillin and cephalothin); assay: In vitro activity, agar dilution, group of five strains; format: cell-based
# Text: (§1) Each of these groups of organisms is constituted of five individual strains of microorganism. The Gp-Ia organisms are Gram-positive staphylococci which are sensitive to penicillin. The Gp-Ib organisms are Gram-positive staphylococci which are resistant to penicillin and produce penicillinase. The Gn-Ia organisms are Gram-negative bacteria which are sensitive to ampicillin and cephalothin. The Gn-Ib organisms are Gram-negative bacteria which are resistant to ampicillin and cephalothin.
# [2] = test system: E. coli A20341-1; assay: MIC, agar dilution technique (Mueller-Hinton Agar); format: cell-based; conditions: Escherichia coli, A203411; E. coli A20341-1; Gn-Ib, ampicillin and cephalothin resistant; read-out: Minimum Inhibitory Concentration
# Text: as §1
# [3] = test system: K. pneumoniae A20345; assay: MIC, agar dilution technique (Mueller-Hinton Agar); format: cell-based; conditions: Klebsiella pneumoniae, Gn-Ib, ampicillin and cephalothin resistant, read-out: Minimum Inhibitory Concentration
# Text: as §1
# [4] = test system: S. aureus A9601; assay: MIC, agar dilution technique (Mueller-Hinton Agar); format: cell-based; conditions: Staphylococcus aureus; S. aureus A9601; Gp-Ia, penicillin sensitive; read-out: Minimum Inhibitory Concentration
# Text: as §1
# [5] = test system: S. aureus Terajima; assay: MIC, agar dilution technique (Mueller-Hinton Agar); format: cell-based; conditions: Staphylococcus aureus, Gp-Ia, penicillin sensitive, read-out: Minimum Inhibitory Concentration
# Text: as §1
# [6] = test system: S. aureus A15092; assay: MIC, agar dilution technique (Mueller-Hinton Agar); format: cell-based; conditions: Staphylococcus aureus, Gp-Ib, penicillin resistant, read-out: Minimum Inhibitory Concentration
# Text: as §1
# [7] = test system: S. aureus Smith; assay: MIC, agar dilution technique (Mueller-Hinton Agar); format: cell-based; conditions: Staphylococcus aureus, Gp-Ia, penicillin sensitive, read-out: Minimum Inhibitory Concentration
# Text: as §1
# [8] = test system: E coli RGN-823; assay: MIC, agar dilution technique (Mueller-Hinton Agar); format: cell-based; conditions: Escherichia coli, RGN823, Gn-Ib, ampicillin and cephalothin resistant, read-out: Minimum Inhibitory Concentration
# Text: as §1
# [9] = test system: E. coli Juhl; assay: MIC, agar dilution technique (Mueller-Hinton Agar); format: cell-based; conditions: Escherichia coli; E. coli Juhl; Gn-Ia, ampicillin and cephalothin sensitive; read-out: Minimum Inhibitory Concentration
# Text: as §1
# [10] = test system: S. aureus A9602; assay: MIC, agar dilution technique (Mueller-Hinton Agar); format: cell-based; conditions: Staphylococcus aureus; S. aureus A9602; Gp-Ib, penicillin resistant; read-out: Minimum Inhibitory Concentration
# Text: as §1
# [11] = test system: P. mirabilis A9900; assay: MIC, agar dilution technique (Mueller-Hinton Agar); format: cell-based; conditions: Proteus mirabilis; P. mirabilis A9900; Gn-Ia, ampicillin and cephalothin sensitive; read-out: Minimum Inhibitory Concentration
# Text: as §1
# [12] = test system: E. coli A9660; assay: MIC, agar dilution technique (Mueller-Hinton Agar); format: cell-based; conditions: Escherichia coli; E. coli A9660; Gn-Ia, ampicillin and cephalothin sensitive; read-out: Minimum Inhibitory Concentration
# Text: as §1
# [13] = test system: E. coli A15148; assay: MIC, agar dilution technique (Mueller-Hinton Agar); format: cell-based; conditions: Escherichia coli; E. coli A15148; Gn-Ib, ampicillin and cephalothin resistant; read-out: Minimum Inhibitory Concentration
# Text: as §1
# [14] = test system: K. pneumoniae A20346; assay: MIC, agar dilution technique (Mueller-Hinton Agar); format: cell-based; conditions: Klebsiella pneumoniae; K. pneumoniae A20346; Gn-Ib, ampicillin and cephalothin resistant; read-out: Minimum Inhibitory Concentration
# Text: as §1
# [15] = test system: S. aureus No. 193; assay: MIC, agar dilution technique (Mueller-Hinton Agar); format: cell-based; conditions: Staphylococcus aureus, Gp-Ib, penicillin resistant, read-out: Minimum Inhibitory Concentration
# Text: as §1
# [16] = test system: S. aureus A9534; assay: MIC, agar dilution technique (Mueller-Hinton Agar); format: cell-based; conditions: Staphylococcus aureus, Gp-Ia, penicillin sensitive, read-out: Minimum Inhibitory Concentration
# Text: as §1
# [17] = test system: S. aureus Russell; assay: MIC, agar dilution technique (Mueller-Hinton Agar); format: cell-based; conditions: Staphylococcus aureus, read-out: Minimum Inhibitory Concentration
# Text: as §1
# [18] = test system: K. pneumoniae D11; assay: MIC, agar dilution technique (Mueller-Hinton Agar); format: cell-based; conditions: Klebsiella pneumoniae; K. pneumoniae D11; Gn-Ia, ampicillin and cephalothin sensitive; read-out: Minimum Inhibitory Concentration
# Text: as §1
# [19] = test system: S. aureus A9497; assay: MIC, agar dilution technique (Mueller-Hinton Agar); format: cell-based; conditions: Staphylococcus aureus, Gp-Ia, penicillin sensitive, read-out: Minimum Inhibitory Concentration
# Text: as §1
# [20] = test system: P. mirabilis A9554; assay: MIC, agar dilution technique (Mueller-Hinton Agar); format: cell-based; conditions: Proteus mirabilis; P. mirabilis A9554; Gn-Ia, ampicillin and cephalothin sensitive; read-out: Minimum Inhibitory Concentration
# Text: as §1
# [21] = test system: S. aureus BX-1633-2; assay: MIC, agar dilution technique (Mueller-Hinton Agar); format: cell-based; conditions: Staphylococcus aureus
# Text: as §1
# [22] = test system: N. meningitidis A21487; assay: In vitro activity against fastidious bacteria; format: cell-based; conditions: Neisseria meningitidis; N. meningitidis A21487; read-out: MIC
# Text: (§2) Table 5 contains comparative data for in vitro antibacterial activity against fastidious bacteria.
# [23] = test system: N. gonorrheae A20154; assay: In vitro activity against fastidious bacteria; format: cell-based; conditions: N. gonorrheae A20154; read-out: MIC
# Text: as §2
# [24] = test system: S. pneumoniae Type II; assay: In vitro activity against fastidious bacteria; format: cell-based; conditions: Streptococcus pneumoniae; S. pneumoniae Type II; read-out: MIC
# Text: as §2
# [25] = test system: S. pneumoniae A15069; assay: In vitro activity against fastidious bacteria; format: cell-based; conditions: Streptococcus pneumoniae; S. pneumoniae A15069; read-out: MIC
# Text: as §2
# [26] = test system: N. gonorrheae A20155; assay: In vitro activity against fastidious bacteria; format: cell-based; conditions: N. gonorrheae A20155; read-out: MIC
# Text: as §2
# [27] = test system: H. influenzae A22157; assay: In vitro activity against fastidious bacteria; format: cell-based; conditions: Haemophilus influenzae, ampicillin-resistant (ABPC-R)
# Text: as §2
# [28] = test system: S. pyogenes A20201; assay: In vitro activity against fastidious bacteria; format: cell-based; conditions: Streptococcus pyogenes; S. pyogenes A20201; read-out: MIC
# Text: as §2
# [29] = test system: N. gonorrheae A15112; assay: In vitro activity against fastidious bacteria; format: cell-based; conditions: N. gonorrheae A15112; read-out: MIC
# Text: as §2
# [30] = test system: N. meningitidis A21497; assay: In vitro activity against fastidious bacteria; format: cell-based; conditions: Neisseria meningitidis; N. meningitidis A21497; read-out: MIC
# Text: as §2
# [31] = test system: H. influenzae A20177; assay: In vitro activity against fastidious bacteria; format: cell-based; conditions: Haemophilus influenzae; H. influenzae A20177; ampicillin-sensitive (ABPC-S); read-out: MIC
# Text: as §2
# [32] = test system: S. pneumoniae Type III; assay: In vitro activity against fastidious bacteria; format: cell-based; conditions: Streptococcus pneumoniae; S. pneumoniae Type III; read-out: MIC
# Text: as §2
# [33] = Mouse urinary recovery; format: in vivo, mice; conditions: 20 mg/kg; for dose excreted at 2 h / dose excreted at 4 h / dose excreted at 6 h / dose excreted at 24 h: mouse, urine, po; for dose excreted at 2 h: 0-2 hr; for dose excreted at 4 h: 2-4 hr; for dose excreted at 6 h: 4-6 hr
# [34] = p.o., 6-24 hr, read-out: Mouse urinary recovery 6-24 hr
# [35] = p.o., total, read-out: Mouse urinary recovery Total
SMILES,activity relative to cephalexin and cefaclor [1],MIC [2],MIC [3],MIC [4],MIC [5],MIC [6],MIC [7],MIC [8],MIC [9],MIC [10],MIC [11],MIC [12],MIC [13],MIC [14],MIC [15],MIC [16],MIC [18],MIC [19],MIC [20],MIC [22],other results
"C/C=C\C1=C(C(=O)O)N2C(=O)C(NC(=O)[C@H](N)c3ccc(O)cc3)[C@H]2SC1 (stereo partly drawn) [BMY-28100, 7-[D-2-amino-2-(4-hydroxyphenyl)acetamido]-3-[(Z)-1-propen-1-yl]-3-cephem-4-carboxylic acid]",more active than cephalexin and slightly better than cefaclor,25 µg/mL,6.3 µg/mL,0.8 µg/mL,0.4 µg/mL,1.6 µg/mL,0.4 µg/mL,> 50 µg/mL,1.6 µg/mL,0.8 µg/mL,0.8 µg/mL,0.8 µg/mL,50 µg/mL,25 µg/mL,1.6 µg/mL,0.4 µg/mL,0.8 µg/mL,0.4 µg/mL,0.8 µg/mL,0.4 µg/mL,"MIC ([17]; S. aureus Russell, Gp-Ib, penicillin resistant): 0.8 µg/mL; MIC ([21]; BX16332, S. aureus BX-1633-2, Gp-Ib, penicillin resistant, read-out: Minimum Inhibitory Concentration): 0.8 µg/mL; MIC [23]: 0.8 µg/mL; MIC [24]: 0.1 µg/mL; MIC [25]: 0.4 µg/mL; MIC [26]: 0.8 µg/mL; MIC [27]: 0.8 µg/mL; MIC [28]: 0.05 µg/mL; MIC [29]: 0.8 µg/mL; MIC [30]: 0.4 µg/mL; MIC [31]: 0.8 µg/mL; MIC [32]: 0.2 µg/mL; dose excreted at 2 h [33]: 60%; dose excreted at 4 h [33]: 5.3%; dose excreted at 6 h [33]: 1.3%; dose excreted at 24 h [33, 34]: 2.3%; dose excreted at 24 h [33, 35]: 69%"
"C/C=C\C1=C(C(=O)O)N2C(=O)C(NC(=O)[C@H](N)c3cccc(O)c3)[C@H]2SC1 (stereo partly shown) [BMY-28272, 7-[(D)-2-amino-2-(3-hydroxyphenyl)acetamido]-3-[(Z)-1-propenyl]-3-cephem-4-carboxylic acid]",more active than cephalexin and slightly better than cefaclor,12.5 µg/mL,6.3 µg/mL,0.8 µg/mL,0.4 µg/mL,1.6 µg/mL,0.4 µg/mL,50 µg/mL,1.6 µg/mL,0.8 µg/mL,0.8 µg/mL,0.8 µg/mL,25 µg/mL,50 µg/mL,1.6 µg/mL,0.4 µg/mL,0.8 µg/mL,0.4 µg/mL,0.8 µg/mL,0.8 µg/mL,"MIC [17]: 1.6 µg/mL; MIC ([21]; BX16332, read-out: Minimum Inhibitory Concentration): 1.6 µg/mL; MIC [23]: 0.8 µg/mL; MIC [24]: 0.1 µg/mL; MIC [25]: 0.4 µg/mL; MIC [26]: 0.4 µg/mL; MIC [27]: 0.4 µg/mL; MIC [28]: 0.05 µg/mL; MIC [29]: 0.4 µg/mL; MIC [30]: 0.4 µg/mL; MIC [31]: 0.8 µg/mL; MIC [32]: 0.4 µg/mL; total recovery ratio relative to BMY-28100 and cefaclor ([33]; p.o.): smaller than those of BMY-28100 and cefaclor; rate of excretion relative to BMY-28100 and cefaclor ([33]; p.o., from the 6-24 hours period): slower than BMY-28100 and cefaclor; dose excreted at 2 h [33]: 37%; dose excreted at 4 h [33]: 4.4%; dose excreted at 6 h [33]: 0.4%; dose excreted at 24 h [33, 34]: 8.7%; dose excreted at 24 h [33, 35]: 51%"
